Data published in the NIST ThermoML archive (doi:10.1016/j.jct.2017.05.028).

Assay: wn = mass fraction of the nth substance listed
Conditions: 101 kPa, Liquid, digital holographic interferometry

SMILES | binary diffusion coefficient (288.15 K, w1 = 0.05) | binary diffusion coefficient (288.15 K, w1 = 0.15) | binary diffusion coefficient (288.15 K, w1 = 0.25) | binary diffusion coefficient (288.15 K, w1 = 0.35) | binary diffusion coefficient (288.15 K, w1 = 0.45) | binary diffusion coefficient (288.15 K, w1 = 0.55) | binary diffusion coefficient (288.15 K, w1 = 0.65) | binary diffusion coefficient (288.15 K, w1 = 0.75) | binary diffusion coefficient (288.15 K, w1 = 0.85) | binary diffusion coefficient (288.15 K, w1 = 0.95) | binary diffusion coefficient (298.15 K, w1 = 0.05) | binary diffusion coefficient (298.15 K, w1 = 0.15) | binary diffusion coefficient (298.15 K, w1 = 0.25) | binary diffusion coefficient (298.15 K, w1 = 0.35) | binary diffusion coefficient (298.15 K, w1 = 0.45) | binary diffusion coefficient (298.15 K, w1 = 0.55) | binary diffusion coefficient (298.15 K, w1 = 0.65) | binary diffusion coefficient (298.15 K, w1 = 0.75) | binary diffusion coefficient (298.15 K, w1 = 0.85) | binary diffusion coefficient (298.15 K, w1 = 0.95) | also measured
CCCCO [butan-1-ol] + CCCCCCC | 1.86e-09 m2/s | 1.39e-09 m2/s | 1.04e-09 m2/s | 8.03e-10 m2/s | 6.87e-10 m2/s | 6.25e-10 m2/s | 6.28e-10 m2/s | 6.75e-10 m2/s | 7.03e-10 m2/s | 7.54e-10 m2/s | 2.09e-09 m2/s | 1.63e-09 m2/s | 1.26e-09 m2/s | 1.06e-09 m2/s | 9.24e-10 m2/s | 8.84e-10 m2/s | 8.71e-10 m2/s | 9.06e-10 m2/s | 9.54e-10 m2/s | 1.01e-09 m2/s | binary diffusion coefficient (308.15 K, w1 = 0.05): 2.4e-09 m2/s; binary diffusion coefficient (308.15 K, w1 = 0.15): 1.92e-09 m2/s; binary diffusion coefficient (308.15 K, w1 = 0.25): 1.57e-09 m2/s; binary diffusion coefficient (308.15 K, w1 = 0.35): 1.33e-09 m2/s; binary diffusion coefficient (308.15 K, w1 = 0.45): 1.19e-09 m2/s; binary diffusion coefficient (308.15 K, w1 = 0.55): 1.13e-09 m2/s; binary diffusion coefficient (308.15 K, w1 = 0.65): 1.11e-09 m2/s; binary diffusion coefficient (308.15 K, w1 = 0.75): 1.13e-09 m2/s; binary diffusion coefficient (308.15 K, w1 = 0.85): 1.2e-09 m2/s; binary diffusion coefficient (308.15 K, w1 = 0.95): 1.26e-09 m2/s; binary diffusion coefficient (318.15 K, w1 = 0.05): 2.73e-09 m2/s; binary diffusion coefficient (318.15 K, w1 = 0.15): 2.24e-09 m2/s; binary diffusion coefficient (318.15 K, w1 = 0.25): 1.87e-09 m2/s; binary diffusion coefficient (318.15 K, w1 = 0.35): 1.6e-09 m2/s; binary diffusion coefficient (318.15 K, w1 = 0.45): 1.49e-09 m2/s; binary diffusion coefficient (318.15 K, w1 = 0.55): 1.42e-09 m2/s; binary diffusion coefficient (318.15 K, w1 = 0.65): 1.4e-09 m2/s; binary diffusion coefficient (318.15 K, w1 = 0.75): 1.44e-09 m2/s; binary diffusion coefficient (318.15 K, w1 = 0.85): 1.48e-09 m2/s; binary diffusion coefficient (318.15 K, w1 = 0.95): 1.54e-09 m2/s
CCCCCO [pentan-1-ol] + CCCCCCC | 1.65e-09 m2/s | 1.19e-09 m2/s | 8.88e-10 m2/s | 7.12e-10 m2/s | 5.95e-10 m2/s | 5.43e-10 m2/s | 5.49e-10 m2/s | 5.77e-10 m2/s | 6.09e-10 m2/s | 6.5e-10 m2/s | 1.88e-09 m2/s | 1.43e-09 m2/s | 1.13e-09 m2/s | 9.36e-10 m2/s | 8.38e-10 m2/s | 7.8e-10 m2/s | 7.86e-10 m2/s | 8.09e-10 m2/s | 8.4e-10 m2/s | 8.76e-10 m2/s | binary diffusion coefficient (308.15 K, w1 = 0.05): 2.11e-09 m2/s; binary diffusion coefficient (308.15 K, w1 = 0.15): 1.69e-09 m2/s; binary diffusion coefficient (308.15 K, w1 = 0.25): 1.38e-09 m2/s; binary diffusion coefficient (308.15 K, w1 = 0.35): 1.18e-09 m2/s; binary diffusion coefficient (308.15 K, w1 = 0.45): 1.07e-09 m2/s; binary diffusion coefficient (308.15 K, w1 = 0.55): 1.02e-09 m2/s; binary diffusion coefficient (308.15 K, w1 = 0.65): 9.99e-10 m2/s; binary diffusion coefficient (308.15 K, w1 = 0.75): 1.04e-09 m2/s; binary diffusion coefficient (308.15 K, w1 = 0.85): 1.07e-09 m2/s; binary diffusion coefficient (308.15 K, w1 = 0.95): 1.12e-09 m2/s; binary diffusion coefficient (318.15 K, w1 = 0.05): 2.42e-09 m2/s; binary diffusion coefficient (318.15 K, w1 = 0.15): 1.96e-09 m2/s; binary diffusion coefficient (318.15 K, w1 = 0.25): 1.64e-09 m2/s; binary diffusion coefficient (318.15 K, w1 = 0.35): 1.42e-09 m2/s; binary diffusion coefficient (318.15 K, w1 = 0.45): 1.33e-09 m2/s; binary diffusion coefficient (318.15 K, w1 = 0.55): 1.29e-09 m2/s; binary diffusion coefficient (318.15 K, w1 = 0.65): 1.28e-09 m2/s; binary diffusion coefficient (318.15 K, w1 = 0.75): 1.31e-09 m2/s; binary diffusion coefficient (318.15 K, w1 = 0.85): 1.36e-09 m2/s; binary diffusion coefficient (318.15 K, w1 = 0.95): 1.38e-09 m2/s
